The results in this text go back to patent publication US8158821B2, “Crystal of 5-aminolevulinic acid phosphate and process for producing the same” (priority 2006, dated 2012).

Molecules are shown by their SMILES.

Data set [1] in a line: Thermal stability test (increase in PDPA content on heating, by liquid chromatography). The class given is physicochemical. Conditions: for Increase in PDPA concentration in solid: heating time 96 hr, phosphate. How it is done: With regard to 5-aminolevulinic acid phosphate, 1 g of each of the powder obtained by a conventional method (the method described in Example 1 of WO2005/100300 pamphlet) and the crystal obtained in Example 1 was weighed out and allowed to stand under each condition shown in Table 3. The amount of 2,5-pyrazinedipropionic acid (PDPA), which is an impurity generated by heating and a compound formed by dimerization of 5-aminolevulinic acid molecules, was measured by liquid chromatography. An increase in the content of PDPA in 5-aminolevulinic acid phosphate was calculated and thermal stability as a substance was evaluated.
Analytical conditions for liquid chromatography: separation column: μBondasphere C18 5μ 100 Å manufactured by Waters, eluent: a mixture of 2% aqueous acetic acid solution and methanol in a volume ratio of 90/10, flow rate: 1.0 mL/min, injection amount of sample: 50 μl, column temperature: 40° C., detector: UV detector (276 nm).

Data set [2] in a line: Test on moisture absorption resistance (change in mass on standing at 25° C. and 90% RH). The class given is physicochemical. The settings on record: for ratio of change in mass: 25° C., 90% RH, 1 g solid, phosphate. How it is done: With regard to 5-aminolevulinic acid phosphate, moisture absorption resistance was evaluated by weighing out 1 g of each of the powder obtained by a conventional method (the method described in Example 1 of WO2005/100300 pamphlet) and the crystal obtained in Example 1, allowing it to stand under conditions of 25° C. and 90% RH, subsequently measuring mass after the passage of each period of time, and calculating a ratio of change in mass.

For the molecule `NCC(=O)CCC(=O)O.O=P(O)(O)O` [Crystal, 5-aminolevulinic acid phosphate], the “thermal stability (in words)” value in data set [1] (as compared with the conventional powder, Table 3) is “excellent in thermal stability”. In addition, the “Increase in PDPA concentration in solid” value in data set [1] (heating temperature 30° C.) is “+0 ppm”; in data set [1] (heating temperature 60° C.) it was −0 ppm. Further, the “ratio of change in mass” value in data set [2] (time passed 1 hr) is listed as “+0.05%”; in data set [2] (time passed 3 hr) it was “+0.06%”; in data set [2] (time passed 5 hr), “+0.09%”; in data set [2] (time passed 6 hr), “+0.08%”; in data set [2] (time passed 7 hr), “+0.09%”; in data set [2] (time passed 24 hr) it was “+0.4%”. In addition, the “moisture absorption resistance (in words)” value in data set [2] (as compared with the conventional powder, Table 2) is recorded as “excellent in moisture absorption resistance”.

As for `NCC(=O)CCC(=O)O.O=P(O)(O)O` [Powder, 5-aminolevulinic acid phosphate], the “Increase in PDPA concentration in solid” value in data set [1] (heating temperature 30° C.) was “+10 ppm”; in data set [1] (heating temperature 60° C.), “+302 ppm”. For the same molecule, the “ratio of change in mass” value in data set [2] (time passed 1 hr) is listed as “+6%”; in data set [2] (time passed 3 hr), “+11%”; in data set [2] (time passed 5 hr) it was “+14%”; in data set [2] (time passed 6 hr) it was “+16%”; in data set [2] (time passed 7 hr), “+17%”; in data set [2] (time passed 24 hr) it was “+21%”.
